# Test results as given in US12037612B2, “High throughput reaction assembly” (priority 2018, dated 2024).
# Legend:
# [1] = target: T1, Taq polymerase (Thermus aquaticus, UniProt P19821); assay: qPCR (GAPDH detection) with dye added directly into the qPCR reaction; type: biochemical; details: increasing dye in the qPCR reaction, final concentration 0.004%, 0.008%, 0.012%, 0.016%, 0.023%; Jurkat total RNA template
# T1 construct: purchased New England Biolabs, Ipswich, MA
# Description: Dyes at a concentration of 0.0003% in a qPCR mix were found not to inhibit Taq polymerase in a qPCR mix in a manner that was detrimental to the reaction. 5-log dilutions of Jurkat total RNA (1 ug, 100 ng, 10 ng, 1 ng, 100 pg) were used as the template RNA for cDNA synthesis using a commercially available thermostable reverse transcriptase (Luna RT). […] 10 minutes, and 95° C. 1 minute. 1 ul cDNA library was added to a qPCR reaction mixture containing Taq polymerase (Luna® Universal qPCR Master Mix (New England Biolabs, Ipswich, MA)) and specific primers were added to detect glyceraldehyde 3-phosphate dehydrogenase (GAPDH) in the presence of xylene cyanol at a final concentration of 0%, 0.004%, 0.008%, 0.012%, 0.016%, or 0.023%, or Xylene cyanol and tartrazine both in the concentration range described above.
# [2] = test system: reverse transcriptase (Luna RT); assay: cDNA synthesis with dye in the cDNA reaction, read out by qPCR (GAPDH); type: biochemical; details: increasing dye in the cDNA reaction, final concentration 0.004%, 0.008%, 0.012%, 0.016%, 0.023%; Jurkat total RNA template
# Description: 5-log dilutions of Jurkat total RNA (1 ug, 100 ng, 10 ng, 1 ng, 100 pg) were used as the template RNA for cDNA synthesis using Luna RT in the presence of xylene cyanol at a final concentration of 0%, 0.004%, 0.008%, 0.012%, 0.016%, or 0.023%, or Xylene cyanol and tartrazine both in the concentration range described above. […] 10 minutes, and 95° C. 1 minute. 1 ul cDNA library was added to a qPCR reaction mixture containing Taq polymerase and specific primers were added to detect GAPDH.
# T1 sequence (P19821 whole entry): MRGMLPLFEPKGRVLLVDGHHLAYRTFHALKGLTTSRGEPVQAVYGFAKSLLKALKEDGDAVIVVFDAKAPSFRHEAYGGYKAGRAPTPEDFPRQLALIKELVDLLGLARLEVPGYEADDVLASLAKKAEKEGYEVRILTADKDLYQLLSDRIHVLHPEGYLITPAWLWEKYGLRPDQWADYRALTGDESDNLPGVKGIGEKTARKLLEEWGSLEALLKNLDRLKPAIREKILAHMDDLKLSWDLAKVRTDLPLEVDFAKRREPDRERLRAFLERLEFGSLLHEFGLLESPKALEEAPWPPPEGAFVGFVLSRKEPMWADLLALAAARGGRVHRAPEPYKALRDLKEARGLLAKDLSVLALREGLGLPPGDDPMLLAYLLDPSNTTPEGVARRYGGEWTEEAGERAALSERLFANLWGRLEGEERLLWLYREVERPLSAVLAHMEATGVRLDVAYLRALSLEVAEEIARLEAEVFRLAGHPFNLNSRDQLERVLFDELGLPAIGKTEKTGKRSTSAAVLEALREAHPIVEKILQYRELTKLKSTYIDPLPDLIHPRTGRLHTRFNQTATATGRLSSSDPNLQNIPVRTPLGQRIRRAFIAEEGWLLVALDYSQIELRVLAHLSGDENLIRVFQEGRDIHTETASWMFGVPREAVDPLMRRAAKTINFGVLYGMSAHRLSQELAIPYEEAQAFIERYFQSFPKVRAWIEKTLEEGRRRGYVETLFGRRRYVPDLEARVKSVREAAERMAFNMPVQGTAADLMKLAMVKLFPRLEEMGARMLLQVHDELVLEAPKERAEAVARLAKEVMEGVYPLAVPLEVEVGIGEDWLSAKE
compound,measurement,setting,value
CCN=C1C=CC(=C(c2ccc(NCC)c(C)c2)c2ccc(S(=O)(=O)[O-])cc2S(=O)(=O)O)C=C1C.[Na+] [xylene cyanol],Cq value in qPCR / inhibition of Taq polymerase,[1],"higher Cq value, indicating stronger inhibition of Taq polymerase"
same,Cq value / inhibition of the reverse transcriptase,[2],"did not change the Cq value, indicating that no detectable inhibition of the reverse transcriptase occurred"
